This note sets out measurements from patent US20220242870A1, “HETEROCYCLE-FUSED PYRIMIDINE DERIVATIVE AND USE THEREOF” (VORONOI Inc., priority 2019, published 2022).

For one test, the system named is MCF-7 cells. Description: Breast cancer cell line proliferation inhibitory activity (CellTiter-Glo 2.0). The following applies: Homo sapiens, MCF7, 120 hours. In kind it is cell-based. The protocol: In order to evaluate the breast cancer cell line cell proliferation inhibitory activities of Examples according to the present invention, the following experiment was performed. Breast cancer cells of MCF-7 (Korean Cell Line Bank) were planted in a clear bottom white 96-well plate (Corning) so as to be 3×10^3/150 μl/well, and a culture solution comprising the compound continuously diluted in multiples of 3 at 12 concentrations (0.00001-2 mM) and a DMSO control group was added by 0.5 μl/well and treated so that the final concentration was 0.00005-10 μM, and then cultured in a 37° C. CO2 incubator for 120 hours. After 120 hours, the plate treated with the compound is taken out, and CellTiter-Glo® 2.0 Assay (Promega) solution is treated at 150 μl/well and then they mix well. They mix well at room temperature for 10 minutes or so, and the fluorescence is measured with a microplate reader. The data were expressed as a percentage in proportion to the vehicle standard treated cells, the GI50 (nM) values were calculated using GraphPad Prism 8.3.0 (GraphPad software Inc., San Diego), and the results were shown in Table 3 below.
(In ATP-based viability assays light output follows the ATP content of the culture.)

The next test deals with T1, human GST-HPK1 (1-346) (Homo sapiens, UniProt Q92918).
T1 construct: purified human GST-HPK1 (1-346, Signalchem) enzyme; purchased Signalchem
T1 sequence (Q92918 1-346): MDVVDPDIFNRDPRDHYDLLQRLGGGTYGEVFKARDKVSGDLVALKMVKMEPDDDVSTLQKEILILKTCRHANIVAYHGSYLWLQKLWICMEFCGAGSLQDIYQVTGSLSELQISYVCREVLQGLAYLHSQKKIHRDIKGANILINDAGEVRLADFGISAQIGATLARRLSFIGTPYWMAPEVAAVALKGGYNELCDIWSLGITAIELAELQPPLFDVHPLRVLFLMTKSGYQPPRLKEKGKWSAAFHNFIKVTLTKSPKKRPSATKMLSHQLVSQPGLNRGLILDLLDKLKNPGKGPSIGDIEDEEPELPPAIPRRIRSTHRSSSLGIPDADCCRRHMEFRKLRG
Description: HPK1 enzyme inhibitory ability (ADP-Glo kinase assay). In kind it is biochemical. The following applies: human GST-HPK1 3 ng, ATP 3 uM, 25° C. 2 hours. The protocol: In order to evaluate the inhibitory activities of the example compounds according to the present invention on the HPK1 (hematopoietic progenitor kinase 1) enzyme, the following experiment was performed. The example compounds were reacted with the purified human GST-HPK1 (1-346, Signalchem) enzyme to evaluate the enzyme inhibitory ability by the following method. As the reaction buffer, a composition of 40 mM Tris-HCl pH 7.4, 20 mM MgCl2, 0.5 mg/mL BSA and 50 uM DTT was used, and reactions of all test matters were performed on the reaction buffer. Upon the test, the human GST-HPK1 (3 ng) enzyme, the purified ATP (3 uM) and a specific substrate solution were reacted at 25° C. for 2 hours, and then the enzyme activity was identified using an in vitro ADP-Glo™ kinase assay (promega). The enzyme activity reaction solution, the ADP-Glo reaction solution and the enzyme ability detection solution were reacted in a ratio of 2:2:1 to measure luminescence. The enzyme activity inhibition degree according to the treatment concentrations of the respective compounds was calculated based on the fluorescence of the enzyme activity of the solvent control group that was not treated with the compound, where the concentration of each compound that inhibited enzyme activity inhibition by 50% was determined as an IC50 (nM) value.
In general terms: ADP-Glo turns the ADP formed in a reaction into a luminescent signal.

Another test deals with T2, human FLT3-ITD enzyme (Homo sapiens, UniProt P36888).
T2 sequence (P36888 1-993): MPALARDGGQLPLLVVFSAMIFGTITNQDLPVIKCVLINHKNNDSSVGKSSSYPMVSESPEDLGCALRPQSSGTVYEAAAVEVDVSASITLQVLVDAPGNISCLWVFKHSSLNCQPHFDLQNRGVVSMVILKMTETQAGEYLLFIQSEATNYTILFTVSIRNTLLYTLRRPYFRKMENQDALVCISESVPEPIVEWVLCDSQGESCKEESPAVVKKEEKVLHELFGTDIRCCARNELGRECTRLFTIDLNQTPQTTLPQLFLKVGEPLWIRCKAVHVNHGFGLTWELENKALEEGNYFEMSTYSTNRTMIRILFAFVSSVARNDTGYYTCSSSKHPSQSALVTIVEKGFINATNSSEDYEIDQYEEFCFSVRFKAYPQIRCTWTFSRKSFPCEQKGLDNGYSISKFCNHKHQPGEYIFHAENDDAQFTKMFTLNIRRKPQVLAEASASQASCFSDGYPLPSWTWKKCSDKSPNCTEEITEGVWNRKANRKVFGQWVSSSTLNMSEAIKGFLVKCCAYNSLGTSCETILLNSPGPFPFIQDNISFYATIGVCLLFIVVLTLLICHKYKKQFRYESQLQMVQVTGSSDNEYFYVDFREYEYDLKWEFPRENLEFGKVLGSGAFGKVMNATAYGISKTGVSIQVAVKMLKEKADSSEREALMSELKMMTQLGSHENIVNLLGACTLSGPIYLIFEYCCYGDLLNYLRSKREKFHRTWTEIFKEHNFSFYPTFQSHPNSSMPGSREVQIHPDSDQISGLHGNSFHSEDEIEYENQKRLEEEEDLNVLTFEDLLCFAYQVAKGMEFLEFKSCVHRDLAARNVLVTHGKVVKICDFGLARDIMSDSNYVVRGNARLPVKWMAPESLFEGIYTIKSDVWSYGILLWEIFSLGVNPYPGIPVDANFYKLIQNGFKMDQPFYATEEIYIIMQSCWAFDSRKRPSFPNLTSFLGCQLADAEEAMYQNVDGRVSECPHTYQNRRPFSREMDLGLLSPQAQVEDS
Description: FLT3 enzyme inhibitory ability (ADP-Glo kinase assay). In kind it is biochemical. Particulars: human FLT3-ITD enzyme 10 ng, ATP 10 μM, 25° C. 1 hour. The protocol: The inhibitory activities of the example compounds according to the present invention to the FLT3-ITD enzyme were evaluated. Specifically, the compound of the present invention was reacted with a purified human FLT3-ITD enzyme (Signalchem). A composition of 40 mM Tris-HCl pH 7.4, 20 mM MgCl2, 0.5 mg/mL BSA and 50 μM DTT was used as a reaction buffer, and reactions of all test matters were performed on the reaction buffer. Upon the test, human FLT3-ITD enzyme (10 ng), purified ATP (10 μM) and a specific substrate solution were reacted at 25° C. for 1 hour, and then the enzyme activity was identified using an in vitro ADP-Glo™ kinase assay (Promega). The enzyme activity reaction solution, the ADP-Glo reaction solution and the enzyme ability detection solution were reacted in a ratio of 2:2:1, and the activity inhibition degree of the enzyme was measured as luminescence. Using the solvent-treated group that was not treated with the compound as a control group, the enzyme activity inhibition degree according to the treatment concentration of each compound was calculated based on the enzyme activity fluorescence degree, and the concentration of each compound that inhibited 50%, IC50 (nM), was determined using Prism Software (version 5.01, GraphPad).

The compound `CN(C)[C@H]1CCN(c2cccc(Nc3nc(N4OCC[C@@H]4c4ccccc4)c4sccc4n3)c2)C1` [Example 64, N-(3-((S)-3-(dimethylamino)pyrrolidin-1-yl)phenyl)-4-((R)-3-phenylisoxazolidin-2-yl)thieno[3,2-d]pyrimidin-2-amine] registered a GI50 in the test with MCF-7 cells above 500 nM. Besides, the IC50 on human GST-HPK1 (1-346) and against human FLT3-ITD enzyme was above 500 nM throughout.

Compound `OCCN1CC[C@@H](Oc2cc(Nc3nc(N4OCC[C@H]4c4ccccc4)c4sccc4n3)cc(C3CC3)c2)C1` [Example 65, 2-((R)-3-(3-cyclopropyl-5-((4-((S)-3-phenylisoxazolidin-2-yl)thieno[3,2-d]pyrimidin-2-yl)amino)phenoxy)pyrrolidin-1-yl)ethan-1-ol] registered a GI50 with MCF-7 cells above 500 nM. Further, the IC50 at human GST-HPK1 (1-346) and at human FLT3-ITD enzyme was above 500 nM each time.

With `COc1cc(Nc2nc(N3OCC[C@H]3c3ccccc3)c3sccc3n2)cc(C(=O)N2CCN(CCO)CC2)c1` [Example 66, (S)-(4-(2-hydroxyethyl)piperazin-1-yl)(3-methoxy-5-((4-(3-phenylisoxazolidin-2-yl)thieno[3,2-d]pyrimidin-2-yl)amino)phenyl)methanone], the GI50 in the test on MCF-7 cells is above 500 nM. For the same compound, the concentration for half-maximal inhibition (IC50) on human GST-HPK1 (1-346) and against human FLT3-ITD enzyme was above 500 nM each time.

Turning to `COc1cc(Nc2nc(N3OCC[C@@H]3c3ccccc3)c3sccc3n2)cc(C(=O)N2CCN(CCO)CC2)c1` [Example 67, (R)-(4-(2-hydroxyethyl)piperazin-1-yl)(3-methoxy-5-((4-(3-phenylisoxazolidin-2-yl)thieno[3,2-d]pyrimidin-2-yl)amino)phenyl)methanone], the GI50 in the test on MCF-7 cells was above 500 nM. Also, the IC50 at human GST-HPK1 (1-346) and on human FLT3-ITD enzyme was above 500 nM each time.

`CN1CCN(c2ccc(Nc3nc(N4N=CCC4c4ccccc4)c4cc[nH]c4n3)cc2)CC1` (stereo not drawn) [Example 68, N-(4-(4-methylpiperazin-1-yl)phenyl)-4-(5-phenyl-4,5-dihydro-1H-pyrazol-1-yl)-7H-pyrrolo[2,3-d]pyrimidin-2-amine]: the GI50 in the test with MCF-7 cells is above 500 nM. Also, the IC50 is above 500 nM at human GST-HPK1 (1-346) and 250 to 500 nM on human FLT3-ITD enzyme.

`OCCN1CCN(c2ccc(Nc3nc(N4OCC[C@H]4c4ccccc4)c4cc[nH]c4n3)cc2)CC1` [Example 81, (S)-2-(4-(4-((4-(3-phenylisoxazolidin-2-yl)-7H-pyrrolo[2,3-d]pyrimidin-2-yl)amino)phenyl)piperazin-1-yl)ethan-1-ol] displayed a GI50 with MCF-7 cells above 500 nM. Also, the figures for the IC50 against human GST-HPK1 (1-346) and at human FLT3-ITD enzyme were at least 250 nM and 250 to 500 nM, respectively.

As to `COc1cc(Nc2nc(N3OCC[C@H]3c3ccccc3)c3cc[nH]c3n2)ccc1N1CCN(CCO)CC1` [Example 82, (S)-2-(4-(2-methoxy-4-((4-(3-phenylisoxazolidin-2-yl)-7H-pyrrolo[2,3-d]pyrimidin-2-yl)amino)phenyl)piperazin-1-yl)ethan-1-ol], the GI50 in the test on MCF-7 cells is above 500 nM. In addition, the IC50 against human GST-HPK1 (1-346) and on human FLT3-ITD enzyme was at least 250 nM throughout.

As for `CCN1CCN(C2CCN(c3ccc(Nc4nc(N5OCC[C@H]5c5ccccc5)c5cc[nH]c5n4)cc3)CC2)CC1` [Example 85, (S)-N-(4-(4-(4-ethylpiperazin-1-yl)piperidin-1-yl)phenyl)-4-(3-phenylisoxazolidin-2-yl)-7H-pyrrolo[2,3-d]pyrimidin-2-amine], the GI50 with MCF-7 cells is above 500 nM. Further, the IC50 at human GST-HPK1 (1-346) is at least 250 nM; against human FLT3-ITD enzyme, above 500 nM.

In the case of `COc1cc(Nc2nc(N3OCC[C@H]3c3ccccc3)c3cc[nH]c3n2)ccc1N1CCC(N2CCN(CCO)CC2)CC1` [Example 90, (S)-2-(4-(1-(2-methoxy-4-((4-(3-phenylisoxazolidin-2-yl)-7H-pyrrolo[2,3-d]pyrimidin-2-yl)amino)phenyl)piperidin-4-yl)piperazin-1-yl)ethan-1-ol], the GI50 in the test with MCF-7 cells was above 500 nM. In addition, the values for the IC50 on human GST-HPK1 (1-346) and against human FLT3-ITD enzyme were at least 250 nM and 250 to 500 nM, respectively.

`CN1C[C@@H]2C[C@H]1CN2c1cc(Nc2nc(N3OCC[C@H]3c3ccccc3)c3cc[nH]c3n2)cc(S(C)(=O)=O)c1` [Example 91, N-(3-((1S,4S)-5-methyl-2,5-diazabicyclo[2.2.1]heptan-2-yl)-5-(methylsulfonyl)phenyl)-4-((S)-3-phenylisoxazolidin-2-yl)-7H-pyrrolo[2,3-d]pyrimidin-2-amine] came in with a GI50 in the test on MCF-7 cells above 500 nM. Further, the figures for the IC50 on human GST-HPK1 (1-346) and on human FLT3-ITD enzyme were at least 250 nM and above 500 nM, respectively.

Compound `CN1C[C@H]2C[C@@H]1CN2c1cc(Nc2nc(N3OCC[C@H]3c3ccccc3)c3cc[nH]c3n2)cc(S(C)(=O)=O)c1` [Example 92, N-(3-((1R,4R)-5-methyl-2,5-diazabicyclo[2.2.1]heptan-2-yl)-5-(methylsulfonyl)phenyl)-4-((S)-3-phenylisoxazolidin-2-yl)-7H-pyrrolo[2,3-d]pyrimidin-2-amine] came in with a GI50 in the test with MCF-7 cells above 500 nM. Further, the IC50 is at least 250 nM against human GST-HPK1 (1-346) and above 500 nM against human FLT3-ITD enzyme.

`OCCN1CC[C@@H](Oc2cc(Nc3nc(N4OCC[C@H]4c4ccccc4)c4cc[nH]c4n3)cc(C3CC3)c2)C1` [Example 93, 2-((R)-3-(3-cyclopropyl-5-((4-((S)-3-phenylisoxazolidin-2-yl)-7H-pyrrolo[2,3-d]pyrimidin-2-yl)amino)phenoxy)pyrrolidin-1-yl)ethan-1-ol] registered a GI50 with MCF-7 cells above 500 nM. Moreover, the IC50 against human GST-HPK1 (1-346) and at human FLT3-ITD enzyme was above 500 nM throughout.

For orientation: GI50 means the concentration giving 50% growth inhibition. Usually IC50 stands for the concentration needed to halve the response being measured. High values mean lower potency, low ones higher potency.
